# Data taken from EP3006026A1, “PHARMACEUTICAL COMPOSITION FOR TREATING ANXIETY CONTAINING L-THEANINE AND BAICALEIN” (FB HEALTH S.P.A., priority 2014, dated 2016).
# What was measured:
# murine model of anxiety = experiment: elevated maze plus (EPM) test, murine model of anxiety; format: in vivo, mice; conditions: 60 minutes prior to maze; for time in percentage on the open arms: 10 mg/kg p.o.; for percentage of time spent on the closed arms: compared to the control, 6 minutes observation
# Description: The activity of a combination of L-theanine and baicalein was tested in a murine model of anxiety.
# The mice were assigned randomly to different treatment groups and subjected to tests in a variable order.
# Diazepam (Hoffmann - La Roche) was used as reference product. The diazepam was diluted to a concentration of 1.5 mg/10 ml with deionised water (Millipore quality) containing propylene glycol 0.5% (Sigma-Aldrich). Two different doses (10 mg/kg and 25 mg/kg) of bot. baicalein and L-theanine were prepared dissolving the powder in 10 ml of deionised water with propylene glycol 0.5%. All the solutions were prepared the same day as the tests and administered orally (p.o.) in a volume of 10 ml/kg by body weight of the mice. The control animals received a solution of propylene glycol 0.5%.
# The animals of the experiment were treated orally with a carrier, diazepam (1.5 mg/kg, n=8), L-theanine (10 mg/kg, 25 mg/kg, n=8), baicalein (10 mg/kg, 25 mg/kg, n=8) or L-theanine + baicalein, in a ratio 1/1 (10 mg/kg, 25 mg/kg, n=8), 60 minutes prior to evaluation in the maze.
# Anxiolytic activity was evaluated using the elevated maze plus (EPM) test. [ ]. The maze was composed of two open arms (31 cm x 5 cm x 1 cm) and two closed arms (31 cm x 5 cm x 15 cm) that extended from a central platform (5 cm x 5 cm) raised to a height of 40 cm from the floor. On the wooden base frame, the closed arms were made of opaque grey plastic, while the open arms were made of the same material with only one slightly raised edge. The EPM was indirectly illuminated by three 40W bulbs.
# (§1) The mice were placed individually at the centre of the maze facing a closed arm and the number of entries and the time spent in the closed and open arms during an observation period of 6 minutes was recorded. Entries to the arms were defined as the entry of all four paws into an arm [ ]. The time in percentage spent on the open arms (100 x open/total time) was calculated for each animal. We also used the open field test to evaluate possible sedative or stimulating activity of the animals [ ]. The open field consisted of a rectangular opaque grey plastic arena (width 30 cm, length 27 cm, height 30 cm) and was illuminated by six 40W bulbs. The floor of the arena was divided into 6 equidistant rectangles to evaluate the number of times the lines were crossed. Groups of 8 mice were treated with diazepam (1.5 mg/kg, 3 mg/kg p.o.), L-theanine (25 mg/kg, 50 mg/kg n=8), baicalein (25 mg/kg, 50 mg/kg, n=8) or L-theanine + baicalein, in a 1/1 ratio (25 mg/kg, 50 mg/kg, n=8) or a carrier (deionised water with propylene glycol at 0.5% p.o.). All the solutions contained propylene glycol at 0.5% as solubilising substance for diazepam. 60 minutes after oral administration, each mouse was placed at the centre of the arena and recorded for 5 minutes.
# The EPM and the open field test were both video recorded using a high resolution video camera WV-CP244 (Panasonic).
# Statistical analysis of the data was performed using one-way analysis of variance (ANOVA) followed by the Student-Newman-Keuls multiple comparison test. In all cases the differences were considered significant if p < 0.05.
# mice = experiment: open field test for sedative or stimulating activity; format: in vivo; conditions: 60 minutes after administration, recorded 5 minutes
# Description: as §1, with “Groups of 8 mice were treated with diazepam (1.5 mg/kg, 3 mg/kg p.o.), L-theanine (25 mg/kg, 50 mg/kg n=8), baicalein (25 mg/kg, 50 mg/kg, n=8) or L-theanine + baicalein, in a 1/1 ratio (25 mg/kg, 50 mg/kg, n=8) or a carrier (deionised water with propylene glycol at 0.5% p.o.). All the solutions contained propylene glycol at 0.5% as solubilising substance for diazepam.” left out
# The EPM and the open field test were both video recorded using a high resolution video camera WV-CP244 (Panasonic). The videos were analysed using the TopScan Top View Animal Behaviour Analyzing System (version 1.00; Clever Sys Inc.) by an impartial person who has no knowledge of the treatment. […]
Compound,time in percentage on the open arms (murine model of anxiety),percentage of time spent on the closed arms (murine model of anxiety; 25 mg/kg p.o.),number of entries to the open arms (murine model of anxiety; diazepam 1.5 mg/kg p.o.),percentage of time spent on the closed arms (murine model of anxiety; diazepam 1.5 mg/kg p.o.),sedation in the open field test (mice; 1.5 mg/kg p.o.),sedation in the open field test (mice; 3 mg/kg p.o.)
"O=c1cc(-c2ccccc2)oc2cc(O)c(O)c(O)c12 [baicalein, 5,6,7-trihydroxy-2-phenyl-chromen-4-one]",did not show any increase,significant increase,,,,
"CCNC(=O)CC[C@H](N)C(=O)O [L-theanine, N-ethyl-L-glutamine]",did not show any increase,significant increase,,,,
CN1C(=O)CN=C(c2ccccc2)c2cc(Cl)ccc21 [diazepam],,,greater,significant increase,caused significant sedation,caused significant sedation
